The data set is described as follows: Human HepG2 cell viability assay in 384 well format. The class given is toxicity, cell-based. Also on record: dose 125 nL, time 70.5 hour; concentration not given beside the values. The following applies: HepG2 cells, read-out: Inhibition.

Molecules are shown by their SMILES.

We go through 104 molecules from ChEMBL document CHEMBL3507680, “University of Dundee, Gates Library screen for HepG2 cell viability”.

For the molecule `O=c1c2ccccc2nc2n1C(CSc1ccc(Br)cc1)CN2` (centres undefined), the cytotoxicity at 70.5 h was found to be 0.264%.
With `O=c1c2ccccc2nc2n1C(CSc1ccc(F)cc1)CN2` (centres undefined) the figure was 28.4%; with `Cc1ccc(SCC2CNc3nc4ccccc4c(=O)n32)c(C)c1` (centres undefined), 20%.
With `CCOC(=O)Cn1ccc(O)c(Cc2ccc(Cl)cc2Cl)c1=O` the figure was 0.692%; with `O=c1c(Cc2ccccc2)c(O)ccn1Cc1ccco1`, 0.508%; with `CCN(CC)c1ncc2c(O)nc(C3CCNCC3)cc2n1`, -4.7%.
With `COCCN1CCCC(C)(c2cc(O)[nH]n2)C1` (centres undefined) the figure was 1.15%; with `CN(C)c1ncc2c(O)nc(C3CCCNC3)cc2n1` (centres undefined), -3.16%; with `CN(C)c1nccc(C2CCN(c3ncccn3)CC2)n1`, -0.97%.
`CN1CCC(c2cccc(NCc3nccn3C)n2)CC1`: the cytotoxicity at 70.5 h was 22.4%.
With `CC(=O)N1CCC(c2cccc(NC3CCOCC3)n2)CC1` the figure was -1.75%; with `COCCNc1ncc(-c2cccc(F)c2)c(-c2nccn2C)n1`, 11%; with `CCOCCCNc1ncc(-c2cccc(F)c2)c(-c2nccn2C)n1`, -3.33%.
With `O=C(CC1CCN(c2cccnn2)CC1)Nc1cccnc1` the figure was -6.44%; with `CN(C)CCNC(=O)CC1CCN(c2cccnn2)CC1`, -2.25%.
For `CCNC(=O)C1(Cc2cc(-c3ccc(C)cc3)no2)CCCN(C)C1` (centres undefined) the value was -5.63%; for `CN1CCC(c2cccc(NCc3ccncc3)n2)CC1`, -2.85%.
Turning to `COCCN1CCC1c1cc(N)nc(C)n1` (centres undefined), the cytotoxicity at 70.5 h is -2.65%.
With `Cc1cc(C)n(C2CCN(S(=O)(=O)N3CCC(C)CC3)CC2)n1` the figure was -3.62%.
Regarding `CNc1nc(C)c(C(=O)NCC(C)(C)N2CCCCC2)s1`, the cytotoxicity at 70.5 h was -0.6%.
On to `CCCn1nc(C)c(-c2cncn2CC2(N(C)C)CCC(C)CC2)c1C` (centres undefined), for which the cytotoxicity at 70.5 h was -5.71%.
With `CNC(=O)C1CN(c2ccnc(C)n2)CCN(C2CCOCC2)C1` (centres undefined) the figure was -1.96%; with `c1cnc(Nc2cc(CCC3CCNCC3)ccn2)cn1`, 5.45%; with `CC(C)C(=O)N1CCCc2c(cnn2-c2ccccc2)C1`, -5.24%.
For `Cc1cc2c(c(=O)n1CCC(=O)O)C=CC(C)(C)O2` the value was -2.47%; for `CNC(=O)C1(CCCc2ccccn2)CCN1Cc1coc(C)n1` (centres undefined), 14.6%.
For `Cc1ccc(CC2COCCN(Cc3ccccc3)C2)nc1` (centres undefined) the value was -2.48%; for `CN1CCCC(Cc2cc(N(C)C)ncn2)C1` (centres undefined), -5.24%; for `CC(Cn1cc(Cl)cn1)C(=O)Nc1ccc(CN2CCCCCC2)cc1` (centres undefined), 18.9%.
For the molecule `COCC(=O)N1CCCCC1c1nc(C)c2c(n1)N(CC1CC1)C(=O)C2` (centres undefined), the cytotoxicity at 70.5 h was -2.8%.
With `Cc1nc(N)ncc1C(=O)N1CCCC1(C)C(=O)N(C)C` (centres undefined) the figure was -3.98%.
`CC(=O)Nc1ccc(CCC2(NC(=O)C3CC3)CCCCC2)cn1`: the cytotoxicity at 70.5 h was -0.0205%.
For `Cc1cc2ccncc2n1CC1(O)CCN(C(=O)c2cccnc2)CC1` the value was -0.954%.
With `Cc1ncc(-c2ccccn2)c(CCNC(=O)C2CCCC2)n1` the figure was 14.1%; with `Cc1ncc(-c2ccccn2)c(CCNC(=O)CCC2CCCO2)n1` (centres undefined), 3.67%.
Consider `CCn1cc(S(=O)(=O)N2CCCCCC2c2cc(C)no2)cn1` (centres undefined), for which the cytotoxicity at 70.5 h amounted to 0.308%.
For `Cc1nc(C)n(CC(=O)N2CCCC(c3nc(C)n4c(C)csc34)C2)n1` (centres undefined) the value was 0.595%.
With `Cc1csc2c(C3CCN(C(=O)Cn4cncn4)CC3)nc(C)n12` the figure was -2.36%; with `CNC(=O)C1CN(c2cc(C)ncn2)CCN1Cc1ccccc1` (centres undefined), 21.6%.
With `CN(C)c1ncc(I)c(C2CCCN2S(C)(=O)=O)n1` (centres undefined) the figure was 44.4%.
As for `Cc1cc(Cc2cccc(C(F)(F)F)c2)cc(C2CCCNC2)n1` (centres undefined), the cytotoxicity at 70.5 h amounted to 2.41%.
For `Cc1ccc(CC(=O)N2CCOC(c3ncc(CN(C)C)[nH]3)C2)s1` (centres undefined) the value was -6.18%.
With `Cc1ccc(C(=O)N2CCOC(c3ncc(CN(C)C)[nH]3)C2)cc1F` (centres undefined) the figure was -3.52%; with `Cc1ccccc1C(=O)N1CCOC(c2ncc(CN(C)C)[nH]2)C1` (centres undefined), -6.83%.
For `COc1cccc(CN2CCC(Cc3cnc(CN(C)C)cn3)CC2)c1` the value was 22.5%; for `CCN1C(=O)CC[C@@H]2N(C(=O)CCn3nccc3C)CCCC[C@@]21C`, -6.96%.
Consider `CN1CCN(C(=O)c2ccccc2)CC(Cc2cc(N(C)C)ncn2)C1` (centres undefined), for which the cytotoxicity at 70.5 h was -3.72%.
With `Cc1cccc(Cc2cc(C)nc(C3CCCNC3)c2)c1` (centres undefined) the figure was 2.77%.
With `O=C(c1ccc2[nH]nnc2c1)N1CC[C@H](O)[C@]2(CCCO2)C1` the figure was -4.29%.
With `CCNc1ncnc2c1CN(C1CCCNCC1)C(=O)CN2C` (centres undefined) the figure was 1.19%; with `CC(C)CC(=O)Nc1ccccc1Oc1ccsc1C(=O)O`, -2.03%.
Take `O=c1c(Cc2ccc(Cl)cc2Cl)c(O)ccn1CC1CC1`: the cytotoxicity at 70.5 h was -5.97%.
As to `CC(C)(C)C(=O)Nc1ccc(Oc2ccsc2C(=O)O)cc1`, the cytotoxicity at 70.5 h amounted to 1.54%.
Turning to `O=C(O)c1sccc1Oc1ccc(NC(=O)C2CC2)cc1`, the cytotoxicity at 70.5 h was -0.448%.
As to `CC(C)(C)OC(=O)N1CCN(c2nnc(Br)s2)CC1`, the cytotoxicity at 70.5 h was 18.7%.
With `CC(C)(C)OC(=O)N1CCCN(c2nnc(Br)s2)CC1` the figure was -4.55%; with `CN(C)c1cc(C(F)(F)F)cc(-c2ccc(C(=O)O)cc2)n1`, -6.98%.
For `O=C(O)c1cnc(OCC2CC2)c(Br)c1` the value was -4.12%; for `O=C(O)c1cc(Br)cnc1OCC1CC1`, 2.88%; for `O=C(NC1CC1)c1cc(C(F)(F)F)cc(C(F)(F)F)n1`, -9.57%.
`OCc1cn(Cc2cccc(C(F)(F)F)c2)nn1`: the cytotoxicity at 70.5 h was -9.88%.
With `COC(=O)c1c(C(F)(F)F)cnc(OC)c1Cl` the figure was -11.7%; with `CC(O)c1cn(Cc2ccccc2)nn1` (centres undefined), -6.51%.
Take `COc1ccc(Cn2cc(C(C)O)nn2)cc1` (centres undefined): the cytotoxicity at 70.5 h was found to be 20.2%.
On to `OC1(CNc2cccc(F)c2)CCNCC1`, for which the cytotoxicity at 70.5 h was -3.17%.
With `Cc1ccc(C(=O)CC(SC2CCCCC2)C(=O)O)cc1` (centres undefined) the figure was -2.59%.
With `COC(=O)c1ccc(C)c(N2CCNC2=O)c1` the figure was -2.21%; with `COC(=O)CN1CCC(C(F)(F)F)CC1`, -2.55%.
With `O=C(CN1CCOCC1)Nc1cc(C(F)(F)F)ccc1-n1cccc1` the figure was -3.59%; with `Cn1c(CN2CCCc3cc(F)cc(F)c32)cc(=O)n(C)c1=O`, -4.68%; with `Cc1ccc(F)c(S(=O)(=O)N2CCCC2c2ccncc2)c1` (centres undefined), -1.25%.
Take `CNC(=O)c1ccc(CN(C)C(=O)Nc2nnc(C(C)C)s2)cc1`: the cytotoxicity at 70.5 h was determined as 2.68%.
For `Cc1ccc(S(=O)(=O)N2CCN(CCCO)CC2)s1` the value was -2.4%.
With `COc1ccc(-n2cnc(Cl)c2CO)cc1` the figure was -2.44%; with `COc1ccc(-c2nc(CCNCc3ccncc3)co2)cc1`, 1.89%; with `Cn1cc(C2CCCN2C(=O)c2cnc(-c3ncccn3)s2)cn1` (centres undefined), -1.78%.
With `N#CC(NC(=O)CCCOc1cccnc1)c1ccc(F)cc1F` (centres undefined), the cytotoxicity at 70.5 h is 6.82%.
With `CN(C(=O)CSc1ncc[nH]1)C1CC1` the figure was -3.27%; with `Cc1ccc2c(c1)N(C(=O)c1cc[nH]c(=O)c1)CC(C)O2` (centres undefined), -1.21%; with `CCN(CC1CC1)C(=O)NCc1nnc2n1CCC2`, 1.57%.
With `Cc1ccc2c(c1)N(C(=O)c1c[nH]c(C)cc1=O)CC(C)O2` (centres undefined) the figure was 28.6%.
As to `Cc1ccc(F)cc1C(=O)N1CCOCC12CCCC2`, the cytotoxicity at 70.5 h was -5.21%.
Take `Cc1cc(C(=O)Nc2ccc3c(c2)N(C)CCN(C)C3)on1`: the cytotoxicity at 70.5 h was -5.18%.
`COc1c(CNCCc2c[nH]c3cc(F)ccc23)c(C(C)C)nn1C`: the cytotoxicity at 70.5 h turned out to be 4.03%.
For `CCc1ccc(C(=O)Nc2ccc3c(c2)N(C)CCN(C)C3)o1` the value was -8.89%; for `CCc1nnsc1C(=O)NCc1nnc2n1CCCCC2`, -3.94%; for `CCc1nnsc1C(=O)NCc1nnc2n1CCC2`, -2.79%.
With `Cc1cc(C)n(Cc2ccc(C(=O)N3CCOCC3(C)C)cc2)n1` the figure was 12.1%.
With `CCC(=O)Nc1ccc(N2CCC(OC)CC2)c(C(F)(F)F)c1` the figure was -4.77%; with `Brc1cccc(-c2noc(C3COCCO3)n2)c1` (centres undefined), -9.75%; with `COc1ccc(C(=O)N2CCOc3ccncc32)cc1`, -1.92%.
For `CCc1cc2c(N3CCCC(c4ccn[nH]4)C3)ncnc2s1` (centres undefined), the cytotoxicity at 70.5 h was 2.73%.
With `CCc1nc(CS(=O)(=O)Cc2noc(C3CC3)n2)cs1` the figure was -1.78%.
With `C[S+]([O-])CCNC(=O)N1CCSC2(CCCCC2)C1` (centres undefined) the figure was -3.78%.
With `O=C(Cc1ccon1)N1CCc2cc(Br)sc2C1` the figure was -3.84%; with `O=C(NCC(O)CO)Nc1cc(Br)ccc1F` (centres undefined), -1.48%.
For the molecule `COc1ccc(C(C)NCc2ccsc2)cc1Cn1cccn1` (centres undefined), the cytotoxicity at 70.5 h is -3.16%.
For `Cc1cc(-c2nccs2)nc(C2CCN(Cc3ccncc3)CC2)n1` the value was -0.926%; for `CNC[C@H]1CC[C@H](c2cc(CN(C)S(=O)(=O)N(C)C)n(C)n2)CC1`, -3.44%; for `CCCn1nc(C)c(-c2cncn2CCN(C)C2CCCC2)c1C`, -4.61%.
With `Cc1ncccc1-c1cc2cccnc2n1CCCNC(=O)C(C)(C)C` the figure was 2.29%; with `CCC(=O)NCCCn1c(-c2cccnc2C)cc2cccnc21`, -1.81%.
For `CC(C)c1nc(-c2ccnc(N3CCNCC3)n2)no1` the value was -7.09%.
Consider `Cc1nc(-c2ccnc(N3CCNCC3)n2)no1`, for which the cytotoxicity at 70.5 h is -1.44%.
